Literature values, collected in patent US20150147356A1, “ANTIPYRETICS TO ENHANCE TOLERABILITY OF VESICLE-BASED VACCINES” (priority 2011, published 2015).
“And” between values parts separate entries of the source, which are not always exact repeats. Identical values can stand only once.

Key:
[1] = in vivo
[2] = in vivo; remark: listed apart in the source

SMILES	half-life [1]	Therapeutic blood level	duration of action [2]
CC(=O)Nc1ccc(O)cc1 [paracetamol, paracetamol (acetaminophen)]	about 3 hours	10-30 μg/ml and 66-199 μM	–
CC(C)Cc1ccc(C(C)C(=O)O)cc1 (stereo not shown) [Ibuprofen, ibuprofen]	–	10-50 μg/ml and 49-243 μM	about 4 hours
